“And” between values parts separate entries of the source, which are not always exact repeats. Equal values may be shown once.
In the case of `CCc1ccccc1CC` [o-diethylbenzene], the melting point is reported as -31 °C. Work on `NC(=O)c1ccccc1O` [o-hydroxybenzamide] yielded a melting point of 142 °C. With `O=C(O)c1ccccc1CO` [o-hydroxymethyl_benzoic_acid] the melting point was 126 °C. For `COc1ccccc1[N+](=O)[O-]` [o-nitroanisole], the melting point was 10 °C. With `N#Cc1ccccc1[N+](=O)[O-]` [o-nitrobenzonitrile] the melting point was 109 °C. With `OCc1ccccc1-c1ccccc1` [o-phenylbenzyl_alcohol] the melting point was 50 °C. For `Cc1ccccc1C(=O)O` [o-toluic acid], the melting point was 105 °C. Compound `Cc1ccccc1C(=O)O` [o-toluic_acid] has a melting point of 105 °C. `Cc1ccccc1C#N` [o-tolunitrile] showed a melting point of -14 °C. `Cc1ccccc1C` [o-xylene] gave a melting point of -25 °C. In the case of `O=C1CCC2C3CCC(=O)C3C12` (centres undefined) [octahydrocyclobuta[1,2-a:3,4-a']dicyclopentene-1,6-dione], the melting point is reported as 67 °C. Compound `CCCCCCCC(=O)O` [octanoic_acid] has a melting point of 17 °C. For `CCCCCCCCN` [octylamine], the melting point was 0 °C. In the case of `CCCCCCCC/C=CCCCCCCCC(=O)O` [oleic acid], the melting point is reported as 14 °C. With `O=P(O)(O)O` [orthophosphoric acid] the melting point was 20 °C. Compound `O=C1c3c(N(\C=C1\C(=O)O)CC)cc2OCOc2c3` [oxolinic acid] has a melting point of 315 °C. Work on `N#CCc1ccc(CC#N)cc1` [p-Xylylene dicyanide] yielded a melting point of 96 °C. For `CC(=O)c1ccc(-c2ccccc2)cc1` [p-acetylbiphenyl], the melting point was 122 °C. `Nc1ccc(C(=O)O)cc1` [p-aminobenzoic acid] showed a melting point of 189 °C. With `Clc1ccc(Br)cc1` [p-bromochlorobenzene] the melting point was 67 °C. `CC(C)c1ccc(Br)cc1` [p-bromocumene] gave a melting point of -22 °C. Work on `Cc1ccc(C(C)C)cc1` [p-cymene] yielded a melting point of -68 °C. For `C=C(C)c1ccc(C(=C)C)cc1` [p-diisopropenylbenzene], the melting point was 66 °C. For `CN(C)c1ccc(C=O)cc1` [p-dimethylaminobenzaldehyde], the melting point was 75 °C. Compound `CCOc1ccc(N)cc1` [p-ethoxyaniline] has a melting point of 4 °C. In the case of `O=Cc1ccc(C(=O)O)cc1` [p-formyl_benzoic_acid], the melting point is reported as 247 °C. With `O=Cc1ccc(CO)cc1` [p-hydroxymethyl_benzaldehyde] the melting point was 47 °C. `O=C(O)c1ccc(CO)cc1` [p-hydroxymethyl_benzoic_acid] gave a melting point of 182 °C. Compound `CC(=O)c1ccc(C)cc1` [p-methylacetophenone] has a melting point of 24 °C. For `NC(=O)c1ccc([N+](=O)[O-])cc1` [p-nitrobenzamide], the melting point was 201 °C. Work on `N#CCc1ccc([N+](=O)[O-])cc1` [p-nitrophenylacetonitrile] yielded a melting point of 116 °C. With `Cc1ccc([N+](=O)[O-])cc1` [p-nitrotoluene] the melting point was 54 °C. `CCOc1ccc(N)cc1` [p-phenetidine] showed a melting point of 3 °C. Work on `CNC(=O)c1ccc(-c2ccccc2)cc1` [p-phenyl-n-methylbenzamide] yielded a melting point of 86 °C. `Oc1ccc(-c2ccccc2)cc1` [p-phenylphenol] gave a melting point of 167 °C. Work on `C=Cc1ccc(-c2ccccc2)cc1` [p-phenylstyrene] yielded a melting point of 119 °C. Compound `Cc1ccc(S(N)(=O)=O)cc1` [p-toluenesulfonamide] has a melting point of 139 °C. Work on `Cc1ccc(C(=O)O)cc1` [p-toluic_acid] yielded a melting point of 182 °C. In the case of `Cc1ccc(N)cc1` [p-toluidine], the melting point is reported as 44 °C. In the case of `Cc1ccc(C#N)cc1` [p-tolunitrile], the melting point is reported as 28 °C. `Cc1ccc(OC(=O)c2ccccc2)cc1` [p-tolyl_benzoate] showed a melting point of 70 °C. `Cc1ccc(CC#N)cc1` [p-tolylacetonitrile] gave a melting point of 18 °C. With `C=Cc1ccc(N)cc1` [p-vinylaniline] the melting point was 26 °C. With `Cc1ccc(C)cc1` [p-xylene] the melting point was 13 °C. `CC(=O)Nc1ccc(O)cc1` [paracetamol] showed a melting point of 169 °C. For `CCCCCCCCCCCCCCC` [pentadecane], the melting point was 10 °C. `O=C(O)c1c(F)c(F)c(F)c(F)c1F` [pentafluorobenzoic acid] gave a melting point of 102 °C. For `Oc1c(F)c(F)c(F)c(F)c1F` [pentafluorophenol], the melting point was 34 °C. Compound `NNc1c(F)c(F)c(F)c(F)c1F` [pentafluorophenylhydrazine] has a melting point of 76 °C. For `CCCCC(=O)O` [pentanoic acid] [listing 1 of 2 here], the melting point was -33.9 °C and -33.7 °C. `CCCCC(=O)O` [pentanoic acid] [listing 2 of 2 here] gave a melting point of -34 °C. `CCCC(C)C1(CC)C(=O)NC(=O)NC1=O` (centres undefined) [pentobarbital] gave a melting point of 130 °C. In the case of `N#Cc1ccc2c(c1)N(CCCN1CCC(O)CC1)c1ccccc1S2` [perciyazine], the melting point is reported as 116 °C. Work on `OCCN1CCN(CCCN2c3ccccc3Sc3ccc(Cl)cc32)CC1` [perphenazine] yielded a melting point of 96.9 °C. `CCOc1ccccc1` [phenetole] gave a melting point of -30 °C. `CN1CCC2=C(C1)C(c1ccccc1)c1ccccc12` (centres undefined) [phenindamine] showed a melting point of 91 °C. `O=C1OC(c2ccc(O)cc2)(c2ccc(O)cc2)c2ccccc21` [phenolphthalein] showed a melting point of 260 °C. In the case of `c1ccc2c(c1)Nc1ccccc1S2` [phenothiazine], the melting point is reported as 184 °C (3×) and 188 °C and 185 °C (2×). `O=C(O)COc1ccccc1` [phenoxyacetic_acid] showed a melting point of 100 °C. Work on `O=C(Oc1ccccc1)c1ccccc1` [phenyl benzoate] yielded a melting point of 69 °C. Work on `OC[C@H]1O[C@@H](Oc2ccccc2)[C@H](O)[C@@H](O)[C@H]1O` [phenyl beta-D-galactopyranoside] yielded a melting point of 154 °C. With `C=CS(=O)(=O)c1ccccc1` [phenyl vinyl sulfone] the melting point was 69 °C. `O=C(Oc1ccccc1)c1ccccc1` [phenyl_benzoate] gave a melting point of 70 °C. `O=C(O)Cc1ccccc1` [phenylacetic acid] gave a melting point of 77.5 °C. In the case of `N#CCc1ccccc1` [phenylacetonitrile], the melting point is reported as -24 °C. `CCCCC1C(=O)N(c2ccccc2)N(c2ccccc2)C1=O` [phenylbutazone] gave a melting point of 105 °C. `N#CCS(=O)(=O)c1ccccc1` [phenylsulfonylacetonitrile] showed a melting point of 112 °C. With `NC(=S)N1CCCCC1` [piperidine-1-thiocarboxamide] the melting point was 128 °C. Work on `COc1cc(C(=O)OCc2cccc(COC(=O)c3cc(OC)c(OC)c(OC)c3)n2)cc(OC)c1OC` [pirozadil] yielded a melting point of 119 °C. For `C[C@]12CC[C@H](O)CC1=CC[C@@H]1[C@@H]2CC[C@]2(C)C(=O)CC[C@@H]12` [prasterone], the melting point was 140 °C. `COc1cc2nc(N3CCN(C(=O)c4ccco4)CC3)nc(N)c2cc1OC` [prazosin] gave a melting point of 285 °C. In the case of `O=C\1\C=C/[C@]4(/C(=C/1)CC[C@@H]2[C@@H]4[C@@H](O)C[C@@]3([C@@](O)(C(=O)CO)CC[C@@H]23)C)C` [prednisolone], the melting point is reported as 240 °C. Work on `CCCN(CCC)S(=O)(=O)c1ccc(C(=O)O)cc1` [probenecid] yielded a melting point of 198 °C. For `CC(=O)[C@H]1CC[C@H]2[C@@H]3CCC4=CC(=O)CC[C@]4(C)[C@H]3CC[C@]12C` [progesterone], the melting point was 126 °C. With `O=C(O)[C@@H]1CCCN1` [proline] the melting point was 221 °C. With `CC(CN1c2ccccc2Sc2ccccc21)N(C)C` (centres undefined) [promethazine] the melting point was 60 °C. `CCC=O` [propanal] showed a melting point of -80 °C. For `CCCNC(=O)C(C(F)(F)F)C(F)(F)F` [propanamide, 3,3,3-trifluoro-N-propyl-2-(trifluoromethyl)-], the melting point was 106 °C. For `C#CCO` [propargyl alcohol], the melting point was -53 °C. Compound `C#CCO` [propargyl_alcohol] has a melting point of -17 °C. `CCC=O` [propionaldehyde] gave a melting point of -81 °C. `CCC(=O)c1ccccc1` [propiophenone] showed a melting point of 18 °C. Compound `CCC(=O)OC(Cc1ccccc1)(c1ccccc1)C(C)CN(C)C` (centres undefined) [propoxyphene] has a melting point of 75 °C. Work on `CC(C)NCC(O)COc1cccc2ccccc12` (centres undefined) [propranolol] [listing 1 of 2 here] yielded a melting point of 162 °C. Work on `CC(C)NCC(O)COc1cccc2ccccc12` (centres undefined) [propranolol] [listing 2 of 2 here] yielded a melting point of 162 °C. Compound `CCCCC[C@H](O)/C=C/[C@H]1[C@H](O)CC(=O)[C@@H]1C/C=C\CCCC(=O)O` [prostaglandin E2] has a melting point of 67 °C. `Oc1cccc(O)c1O` [pyrogallol] gave a melting point of 133 °C. `C=C[C@H]1C[N@@]2CC[C@H]1C[C@H]2[C@H](O)c1ccnc2ccc(OC)cc12` [quinine] gave a melting point of 177 °C. With `O=C(O)c1ccc2ncccc2c1` [quinoline-6-carboxylic acid] the melting point was 295 °C. `CNC(=C[N+](=O)[O-])NCCSCc1ccc(CN(C)C)o1` [ranitidine] gave a melting point of 69 °C. Compound `Oc1cccc(O)c1` [resorcinol] has a melting point of 111 °C. `O=C2/N=C\1/N(c3cc(c(cc3/N=C/1C(=O)N2)C)C)CC(O)C(O)C(O)CO` (centres undefined) [riboflavin] showed a melting point of 280 °C. `NC(=O)c1ccccc1O` [salicylamide] showed a melting point of 140 °C. Compound `O=C(O)CCCCCCCCC(=O)O` [sebacic_acid] has a melting point of 133 °C. `N#CCCCCCCCCC#N` [sebaconitrile] gave a melting point of 6 °C. Work on `CCC(C)OC(C)=O` (centres undefined) [sec-butyl acetate] yielded a melting point of -99 °C. For `CCC(C)C1(CC)C(=O)NC(=O)NC1=O` (centres undefined) [secbutabarbital], the melting point was 166 °C. With `OC[C@@H](O)[C@@H](O)[C@H](O)[C@@H](O)CO` [sorbitol] the melting point was 111 °C. With `NCCCNCCCCNCCCN` [spermine] the melting point was 29 °C. In the case of `O=C(CCCN1CCC2(CC1)C(=O)NCN2c1ccccc1)c1ccc(F)cc1` [spiperone], the melting point is reported as 190 °C. Work on `CC(C)CCCC(C)CCCC(C)CCCCC(C)CCCC(C)CCCC(C)C` (centres undefined) [squalane] yielded a melting point of -38 °C. `CC(C)=CCC/C(C)=C/CC/C(C)=C/CC/C=C(\C)CC/C=C(\C)CCC=C(C)C` [squalene] showed a melting point of -75 °C. In the case of `C[C@]12CCC(=O)C[C@@H]1CC[C@@H]1[C@@H]2CC[C@]2(C)[C@@H](O)CC[C@@H]12` [stanolone], the melting point is reported as 181 °C. In the case of `Cc1ccnc(NS(=O)(=O)c2ccc(N)cc2)n1` [sulfamerazine (polymorph 1)], the melting point is reported as 235 °C. For `Cc1ccnc(NS(=O)(=O)c2ccc(N)cc2)n1` [sulfamerazine], the melting point was 235 °C. For `Cc1cc(C)nc(NS(=O)(=O)c2ccc(N)cc2)n1` [sulfamethazine] [listing 1 of 2 here], the melting point was 200 °C. With `Cc1cc(C)nc(NS(=O)(=O)c2ccc(N)cc2)n1` [sulfamethazine] [listing 2 of 2 here] the melting point was 200 °C. In the case of `COc1ccc(NS(=O)(=O)c2ccc(N)cc2)nn1` [sulfamethoxypyridazine], the melting point is reported as 182 °C. `Nc1ccc(S(=O)(=O)Nc2nccs2)cc1` [sulfathiazole] showed a melting point of 202 °C.

— the Bradley open melting point set (2014)
